Measurements published in patent publication US9012454B2, “Sexual dysfunction” (Mayo Foundation for Medical Education and Research, priority 2005, dated 2015).

Experiments:
[1] = tested on: surgical infarct model of CHF; test: Transthoracic echocardiography in surgical infarct (LAD ligation) model of CHF; assay type: in vivo, rat; conditions: for fractional shortening (FS): 4 weeks after surgery, captopril 100 mg/kg/day or prazosin 2 mg/kg/day, mean±SEM
Description: Adult male Sprague-Dawley rats (Harlan, Indianapolis, Ind.) weighing 400-450 grams were put under general anesthesia by intraperitoneal injection with a mixture (3:3:2) of ketamine (100 mg/mL), xylazine (20 mg/mL), and acepromazine (10 mg/mL). After intubation, the rats were ventilated continuously (room air) using a small animal ventilator (model 683, Harvard Apparatus, Holliston, Mass.). A left lateral thoracotomy incision was made along the 5th intercostal space. After the pericardium was opened, the heart was exteriorized using a retention suture placed at the apex. The left anterior descending coronary artery (LAD) was ligated twice using 6-0 prolene suture (Ethicon, Piscataway, N.J.). After chest closure with running 3-0 vicryl suture (Ethicon), rats were placed in a recovery chamber with a heating pad and a warming light.
Beginning on post-operative day one, rats were allowed to drink ad libitum. One group was fed water with captopril (2 g/L), and another group was fed water alone (Pfeffer et al., Circ. Res., 57:84-95 (1985)). The rats were fed a standard diet of Teklad rodent feed (Harlan) ad libitum and kept on a 12:12 hour light-dark cycle. In both the captopril- and the placebo-treated group, the rats were sacrificed at designated time intervals of 2 weeks and then 4, 6, and 8 weeks after surgery. On average, the rats drank approximately 20 mL of water daily, which corresponded to a dose of 100 mg/kg/day of captopril.
All rats in the placebo- and captopril-treated groups underwent transthoracic echocardiography (Acuson Sequoia C256® Echocardiography System, Siemens Medical Solutions USA, Inc., Malvern, Pa.) at baseline prior to LAD ligation and at 2, 4, 6, and 8 weeks after LAD ligation using 2-D digital loop imaging under conscious sedation with vaporized isoflurane as described previously (Karim et al., Circ. Res., 95:612-18 (2004); Morgan et al., Am. J. Physiol. Heart Circ. Physiol., 287:H2049-H2053 (2004)). […] Both parasternal long and short axis views were obtained using a 13-MHz linear array transducer. Digital calipers were used to measure end systolic dimension (ESD) and end diastolic dimension (EDD). Cardiac function was estimated using fractional shortening (FS) obtained from the EDD and ESD in the parasternal long axis view and calculated as FS=((EDD−ESD)/EDD)×100%.
The echocardiographic data were reported as mean±SEM.

LZ+ MYPT1 isoform = test: Western blot of relative LZ+ MYPT1 isoform expression in vascular smooth muscle after LAD ligation; assay type: in vivo, rat; conditions: for LZ+ MYPT1 isoform expression in aorta (in words) / LZ+ MYPT1 isoform expression in iliac artery (in words): captopril 2-8 weeks, prazosin 4 weeks

SMILES | effect on fractional shortening / left ventricular function (LVF) ([1]; infarct rats versus placebo, captopril as early as 2 weeks post-infarction, prazosin at 4 weeks) | fractional shortening (FS) ([1]; infarct rats) | end systolic dimension (ESD) compared to placebo ([1]; infarct rats, all time-points (2, 4, 6, 8 weeks), P<0.05) | LZ+ MYPT1 isoform expression in aorta (in words) (LZ+ MYPT1 isoform; infarct rats, aorta) | LZ+ MYPT1 isoform expression in iliac artery (in words) (LZ+ MYPT1 isoform; infarct rats, iliac artery) | LZ+ MYPT1 isoform expression in portal vein (in words) (LZ+ MYPT1 isoform; infarct rats, portal vein, all time intervals) | LZ+ MYPT1 isoform expression in the aorta (fall versus uninfarcted control) (LZ+ MYPT1 isoform; aorta, 4 weeks after infarction, placebo 44±1%, P<0.05) | LZ+ MYPT1 isoform expression in the iliac artery (fall versus uninfarcted control) (LZ+ MYPT1 isoform; iliac artery, 4 weeks after infarction, placebo 52±2%, P=0.87)
C[C@H](CS)C(=O)N1CCC[C@H]1C(=O)O [captopril] | attenuated the fall in FS and improved left ventricular function | 45±1% | reduced the ESD | preserved at the uninfarcted control level | preserved at the level of the uninfarcted control smooth muscle | remained low | – | –
COc1cc2nc(N3CCN(C(=O)c4ccco4)CC3)nc(N)c2cc1OC [prazosin] | – | 38±2% | – | did not prevent the fall | did not prevent the fall | – | 68±1% | 54±2%
